Test results from article PMC9405973, “Altered Conformational Landscape upon Sensing Guanine Nucleotides in a Disease Mutant of Elongation Factor-like 1 (EFL1) GTPase” (Biomolecules, 2022).
Where “and” joins values, the source holds several entries; their conditions need not be identical. Equal values may be shown once. Read-outs that look alike come from different tables or passages of the source.

Assays:
Efl1 R1086Q•Sdo1 = biological target: T1, Efl1 R1086Q•Sdo1 (Saccharomyces cerevisiae, UniProt P53893, R1086Q); assay: ITC: binding of guanine nucleotides to pre-formed complex Efl1 R1086Q•Sdo1; conditions: for ΔCpb: from ΔHb at 25–35 °C; for -TΔs / Δg / Δh / κ (heterotropic cooperativity): Effect of Mg^2+
T1 construct: made in house; host or cells: Efl1: Saccharomyces cerevisiae; Sdo1: Escherichia coli C41
T1 sequence (P53893 whole entry R1086Q): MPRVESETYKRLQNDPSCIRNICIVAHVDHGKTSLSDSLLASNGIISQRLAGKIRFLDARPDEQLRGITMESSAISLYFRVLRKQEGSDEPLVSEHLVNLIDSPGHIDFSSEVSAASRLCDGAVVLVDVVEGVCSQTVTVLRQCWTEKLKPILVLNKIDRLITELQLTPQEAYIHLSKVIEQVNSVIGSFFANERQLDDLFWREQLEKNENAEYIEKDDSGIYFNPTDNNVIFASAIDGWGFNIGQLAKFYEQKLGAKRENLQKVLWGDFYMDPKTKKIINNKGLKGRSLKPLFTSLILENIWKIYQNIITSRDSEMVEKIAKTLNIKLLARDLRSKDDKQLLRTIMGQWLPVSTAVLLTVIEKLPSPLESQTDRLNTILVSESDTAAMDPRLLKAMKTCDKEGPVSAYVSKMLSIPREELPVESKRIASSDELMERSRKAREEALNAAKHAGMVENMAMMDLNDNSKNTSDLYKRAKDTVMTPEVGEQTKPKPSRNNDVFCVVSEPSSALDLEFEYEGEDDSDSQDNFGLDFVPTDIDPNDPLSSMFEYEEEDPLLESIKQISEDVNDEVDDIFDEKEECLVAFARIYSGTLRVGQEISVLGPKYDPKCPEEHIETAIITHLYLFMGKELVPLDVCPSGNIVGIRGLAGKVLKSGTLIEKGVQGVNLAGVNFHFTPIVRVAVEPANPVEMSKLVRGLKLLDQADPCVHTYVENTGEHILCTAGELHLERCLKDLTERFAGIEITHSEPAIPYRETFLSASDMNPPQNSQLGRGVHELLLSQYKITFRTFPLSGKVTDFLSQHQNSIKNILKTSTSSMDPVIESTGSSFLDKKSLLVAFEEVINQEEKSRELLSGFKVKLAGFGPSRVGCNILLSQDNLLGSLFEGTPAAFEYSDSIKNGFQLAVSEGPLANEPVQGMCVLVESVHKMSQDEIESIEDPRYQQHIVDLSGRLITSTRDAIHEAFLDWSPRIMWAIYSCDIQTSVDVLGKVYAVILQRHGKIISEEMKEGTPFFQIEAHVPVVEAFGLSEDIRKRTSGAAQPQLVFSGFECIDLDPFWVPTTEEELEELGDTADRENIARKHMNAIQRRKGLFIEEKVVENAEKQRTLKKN
T1 sequence (Q07953 whole entry, further chain): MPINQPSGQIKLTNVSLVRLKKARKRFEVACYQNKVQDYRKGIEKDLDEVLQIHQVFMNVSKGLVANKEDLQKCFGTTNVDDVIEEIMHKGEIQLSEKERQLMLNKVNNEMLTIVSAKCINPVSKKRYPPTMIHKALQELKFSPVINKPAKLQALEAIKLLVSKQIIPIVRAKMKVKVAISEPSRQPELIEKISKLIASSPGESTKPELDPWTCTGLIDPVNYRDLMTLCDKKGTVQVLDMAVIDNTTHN
Description: All calorimetric measurements were carried out using MicroCal^TM iTC200 System (GE Healthcare, Northampton, MA, USA) in a temperature range of 25–35 °C. Experiments were performed in a buffer consisting of 50 mM Tris-HCl (pH 8.0), 150 mM NaCl, 100 µM DTT, and 5% glycerol. In the titrations with Mg^2+-bound nucleotides, both the ligand and protein solutions contained 5 mM MgCl2. In the case of titrations with Mg^2+-free nucleotide, both the ligand and protein solutions were supplemented with 2 mM EDTA to sequester any residual trace of metal ions in solution. Protein samples and ligands were prepared in the exact same buffer prior to each titration. Protein concentration in the cell comprised 30–50 µM GTPase, while the ligand concentration in the syringe was 2–3 mM for GTP, MgGTP, GDP, and MgGDP. To ensure measuring the interaction of the complex Efl1 R1086Q•Sdo1 with the nucleotide, an eight-fold concentration excess of Sdo1 was used compared with that of the enzyme. […] The titration schedule consisted of 15–20 consecutive injections of the ligand with 5 min intervals between injections and a stirring rate of 700 rpm. The dilution heat of the ligand was obtained by adding the ligand to a buffer solution under identical conditions and with the same injection schedule used for the protein sample. All samples were degassed for 10 min prior to the experiment.
The binding isotherms obtained for the isolated GTPase in the presence of Mg(II) were analysed using a ternary model in which the protein can bind to the free nucleotide (G(D)TP) or that bound to one magnesium ion (MgG(D)TP); additionally, GTP may also exist in the form of Mg2GTP, which is not recognised by the protein. The derivation of this coupled-equilibria model can be reviewed in [6, 31]. The binding constant (Kb), the enthalpy change (∆Hb), and the stoichiometry (n) were obtained with the non-linear routines implemented in Origin 5.0 (OriginLab, Co., Northampton, MA, USA) using a one-binding-site model as described in [32, 33]. The heterotropic cooperativity for the binding of guanine nucleotides and Sdo1 to Efl1 R1086Q were calculated as previously described in [6, 32]. The cooperative effects of Mg(II) on the binding of guanine nucleotides to Efl1 R1086Q alone and bound to Sdo1 were calculated as follows:κ = KE-MG/KE-G κ = KES-MG/KES-G Δh = ΔHE-MG − ΔHE-G Δh = ΔHES-MG − ΔHES-G where subscripts E-MG and E-G stand for the association of the metal-bound and metal-free guanine nucleotide with mutant Efl1, respectively. Corresponding expressions applied to the heterotropic cooperativity of the binding of nucleotides to the preformed complex, Efl1•Sdo1 (ES).
The impact of Sdo1 on the binding of Efl1 R1086Q to guanine nucleotides in the presence of magnesium ions is contained in KES-MG and ΔHES-MG relative to the KE-S and ΔHE-S values; analogous ratios report the effects in the absence of Mg(II):κ = KES-MG/KE-S κ = KES-G/KE-G Δh = ΔHES-MG − ΔHE-S Δh = ΔHES-G − ΔHE-G
The corresponding cooperative entropy change was calculated as:TΔs = Δh − Δg = Δh + RTlnκ
The detailed methodology and equations to compute the changes in the accessible surface area (∆ASA) of the GTPase upon binding to nucleotides and the ∆S energetic-based parameters are reported in [6]. Briefly, the water-accessible areas (ASAs) were computed using programme NACCESS, while the changes in accessible surface area (ΔASA) upon the formation of each GTPase–nucleotide complex were estimated considering the difference between the complex and the sum of the free interacting partners. The calculated polar (ΔASAp) and apolar (ΔASAap) area changes were subsequently used to estimate the free molecular partners. […]

wild-type Efl1 = conditions: cited from earlier work; for -TΔSb / Kd / ΔGb / ΔHb / ΔCpb: guanine nucleotide
wild-type Efl1•Sdo1 = test system: wild-type Efl1•Sdo1; design: method as in PMID 30780079; conditions: −Mg^2+, cited from earlier work
[1] = Effect of Mg^2+, wild-type Efl1 − Sdo1, 30 °C
[2] = Effect of Sdo1, wild-type Efl1 − Mg^2+, 30 °C

SMILES: Nc1nc2c(ncn2[C@@H]2O[C@H](COP(=O)(O)OP(=O)(O)O)[C@@H](O)[C@H]2O)c(=O)[nH]1 [GDP]
- fold greater affinity in the presence of magnesium ions (Efl1 R1086Q•Sdo1; +Mg^2+ vs −Mg^2+): 2–5 times
- -TΔSb (Efl1 R1086Q•Sdo1; +Mg^2+, 25 °C): -4.7 kcal/mol
- ΔGb (Efl1 R1086Q•Sdo1; +Mg^2+, 25 °C): -6.9 kcal/mol
- ΔHb (Efl1 R1086Q•Sdo1; +Mg^2+, 25 °C): -2.1 ± 0.08 kcal/mol
- -TΔSb (Efl1 R1086Q•Sdo1; +Mg^2+, 30 °C): -3.3 kcal/mol
- Nconfres (number of residues changing conformation, absolute value) (Efl1 R1086Q•Sdo1; +Mg^2+, 30 °C): 25
- Nconfrotb (number of routable bonds changing conformation, absolute value) (Efl1 R1086Q•Sdo1; +Mg^2+, 30 °C): 34
- ΔCpconf (Efl1 R1086Q•Sdo1; +Mg^2+, 30 °C): −267 cal mol^−1 K^−1
- ΔCprb (Efl1 R1086Q•Sdo1; +Mg^2+, 30 °C): −48 cal mol^−1 K^−1
- ΔGb (Efl1 R1086Q•Sdo1; +Mg^2+, 30 °C): -7.1 kcal/mol
- ΔHb (Efl1 R1086Q•Sdo1; +Mg^2+, 30 °C): -3.8 ± 0.05 kcal/mol
- ΔSb (Efl1 R1086Q•Sdo1; +Mg^2+, 30 °C): 11 cal mol^−1 K^−1
- ΔSconf (Efl1 R1086Q•Sdo1; +Mg^2+, 30 °C): −57 cal mol^−1 K^−1
- ΔSsolv (Efl1 R1086Q•Sdo1; +Mg^2+, 30 °C): 75 cal mol^−1 K^−1
- −ΔASAconf (Efl1 R1086Q•Sdo1; +Mg^2+, 30 °C): 1198 Å^2
- -TΔSb (Efl1 R1086Q•Sdo1; +Mg^2+, 35 °C): -2.0 kcal/mol
- ΔGb (Efl1 R1086Q•Sdo1; +Mg^2+, 35 °C): -7.3 kcal/mol
- ΔHb (Efl1 R1086Q•Sdo1; +Mg^2+, 35 °C): -5.3 ± 0.11 kcal/mol
- ΔCpb (Efl1 R1086Q•Sdo1; +Mg^2+): −315 cal mol^−1 K^−1 and −315 ± 9 cal mol^−1 K^−1
- -TΔs (Efl1 R1086Q•Sdo1; Efl1 R1086Q + Sdo1, 25 °C): -0.7 kcal/mol
- Δg (Efl1 R1086Q•Sdo1; Efl1 R1086Q + Sdo1, 25 °C): -0.4 kcal/mol
- Δh (Efl1 R1086Q•Sdo1; Efl1 R1086Q + Sdo1, 25 °C): 0.3 kcal/mol
- κ (heterotropic cooperativity) (Efl1 R1086Q•Sdo1; Efl1 R1086Q + Sdo1, 25 °C): 1.9
- -TΔs (Efl1 R1086Q•Sdo1; Efl1 R1086Q + Sdo1, 30 °C): -2.4 kcal/mol
- Δg (Efl1 R1086Q•Sdo1; Efl1 R1086Q + Sdo1, 30 °C): -0.8 kcal/mol
- Δh (Efl1 R1086Q•Sdo1; Efl1 R1086Q + Sdo1, 30 °C): 1.6 kcal/mol
- κ (heterotropic cooperativity) (Efl1 R1086Q•Sdo1; Efl1 R1086Q + Sdo1, 30 °C): 3.7
- -TΔs (Efl1 R1086Q•Sdo1; Efl1 R1086Q + Sdo1, 35 °C): -3.7 kcal/mol
- Δg (Efl1 R1086Q•Sdo1; Efl1 R1086Q + Sdo1, 35 °C): -1.0 kcal/mol
- Δh (Efl1 R1086Q•Sdo1; Efl1 R1086Q + Sdo1, 35 °C): 2.7 kcal/mol
- κ (heterotropic cooperativity) (Efl1 R1086Q•Sdo1; Efl1 R1086Q + Sdo1, 35 °C): 5.4
- Kd (Efl1 R1086Q•Sdo1; +Mg^2+, 25 °C): 9 ± 2 µM
- Kd (Efl1 R1086Q•Sdo1; +Mg^2+, 30 °C): 8 ± 1 µM
- Kd (Efl1 R1086Q•Sdo1; +Mg^2+, 35 °C): 6 ± 1 µM
- Kd (Efl1 R1086Q•Sdo1; −Mg^2+, 25 °C): 17 ± 0.5 µM
- Kd (Efl1 R1086Q•Sdo1; −Mg^2+, 30 °C): 30 ± 4 µM
- Kd (Efl1 R1086Q•Sdo1; −Mg^2+, 35 °C): 34 ± 5 µM
- -TΔSb (Efl1 R1086Q•Sdo1; −Mg^2+, 25 °C): -4.0 kcal/mol
- ΔGb (Efl1 R1086Q•Sdo1; −Mg^2+, 25 °C): -6.5 kcal/mol
- ΔHb (Efl1 R1086Q•Sdo1; −Mg^2+, 25 °C): -2.5 ± 0.4 kcal/mol
- -TΔSb (Efl1 R1086Q•Sdo1; −Mg^2+, 30 °C): -1.0 kcal/mol
- Nconfres (number of residues changing conformation, absolute value) (Efl1 R1086Q•Sdo1; −Mg^2+, 30 °C): 50
- Nconfrotb (number of routable bonds changing conformation, absolute value) (Efl1 R1086Q•Sdo1; −Mg^2+, 30 °C): 72
- ΔCpconf (Efl1 R1086Q•Sdo1; −Mg^2+, 30 °C): −520 cal mol^−1 K^−1
- ΔGb (Efl1 R1086Q•Sdo1; −Mg^2+, 30 °C): -6.3 kcal/mol
- ΔHb (Efl1 R1086Q•Sdo1; −Mg^2+, 30 °C): -5.4 ± 0.6 kcal/mol
- ΔSb (Efl1 R1086Q•Sdo1; −Mg^2+, 30 °C): 3 cal mol^−1 K^−1
- ΔSconf (Efl1 R1086Q•Sdo1; −Mg^2+, 30 °C): −121 cal mol^−1 K^−1
- ΔSsolv (Efl1 R1086Q•Sdo1; −Mg^2+, 30 °C): 132 cal mol^−1 K^−1
- −ΔASAconf (Efl1 R1086Q•Sdo1; −Mg^2+, 30 °C): 2334 Å^2
- -TΔSb (Efl1 R1086Q•Sdo1; −Mg^2+, 35 °C): 1.7 kcal/mol
- ΔGb (Efl1 R1086Q•Sdo1; −Mg^2+, 35 °C): -6.30 kcal/mol
- ΔHb (Efl1 R1086Q•Sdo1; −Mg^2+, 35 °C): -8.0 ± 0.8 kcal/mol
- ΔCpb (Efl1 R1086Q•Sdo1; −Mg^2+): −550 cal mol^−1 K^−1 and −550 ± 18 cal mol^−1 K^−1
- -TΔs (wild-type Efl1; [1]): -0.5 kcal/mol
- Δg (wild-type Efl1; [1]): 0.6 kcal/mol
- Δh (wild-type Efl1; [1]): 1.1 kcal/mol
- κ (heterotropic cooperativity) (wild-type Efl1; [1]): 0.4
- -TΔs (wild-type Efl1; [2]): 1.5 kcal/mol
- Δg (wild-type Efl1; [2]): 0.8 kcal/mol
- Δh (wild-type Efl1; [2]): -0.7 kcal/mol
- κ (heterotropic cooperativity) (wild-type Efl1; [2]): 0.3
- -TΔSb (wild-type Efl1; +Mg^2+, 30 °C): -0.5 kcal/mol
- Kd (wild-type Efl1; +Mg^2+, 30 °C): 37 µM
- ΔGb (wild-type Efl1; +Mg^2+, 30 °C): -6.1 kcal/mol
- ΔHb (wild-type Efl1; +Mg^2+, 30 °C): -5.6 ± 0.2 kcal/mol
- ΔCpb (wild-type Efl1; +Mg^2+): −310 ± 5 cal mol^−1 K^−1 and −310 cal mol^−1 K^−1
- -TΔSb (wild-type Efl1; −Mg^2+, 30 °C): 0.0 kcal/mol
- Kd (wild-type Efl1; −Mg^2+, 30 °C): 16 µM
- ΔGb (wild-type Efl1; −Mg^2+, 30 °C): -6.7 kcal/mol
- ΔHb (wild-type Efl1; −Mg^2+, 30 °C): -6.7 ± 0.3 kcal/mol
- ΔCpb (wild-type Efl1; −Mg^2+): −318 ± 35 cal mol^−1 K^−1 and −318 cal mol^−1 K^−1
- -TΔSb (wild-type Efl1•Sdo1; 30 °C): 1.5 kcal/mol
- Kd (wild-type Efl1•Sdo1; 30 °C): 52 µM
- ΔGb (wild-type Efl1•Sdo1; 30 °C): -5.9 kcal/mol
- ΔHb (wild-type Efl1•Sdo1; 30 °C): -7.4 ± 0.0 kcal/mol
- ΔCpb (wild-type Efl1•Sdo1): −640 cal mol^−1 K^−1 and −640 ± 34 cal mol^−1 K^−1
